Results taken from publication PMC11243625, “Synthesis, Docking, and Machine Learning Studies of Some Novel Quinolinesulfonamides–Triazole Hybrids with Anticancer Activity” (Molecules, 2024).
In brackets after ≈: the same amount, converted by molar mass.

Assays:
[1] = tested on: Caco-2; assay: WST-1 test, colon cancer cells; type: cell-based, human; conditions: Homo sapiens, Caco-2, 72 h
Procedure: Hybrids 4–14 were tested as anticancer agents against four human cancer cell lines: colon cancer (Caco-2), glioblastoma (SNB-19), lung cancer (A549), ovarian cancer (SKOV-3), and normal human dermal fibroblasts (NHDFs).
(§1) Cell cultures were performed in 96-well plates (Nunc Thermo Fisher Scientific, Waltham, MA, USA). Cells were seeded at 5 × 10^4/well and incubated for 24 h (at 37 °C, 5% CO2, and constant humidity). The medium was replaced with fresh with the addition of test compounds at a concentration of 0.1–100 µg/mL of DMSO and incubated again for another 72 h. After this time, the WST-1 test (Roche Molecular Biochemicals, Mannheim, Germany) was performed to assess the metabolic activity of the cells. Absorbance was measured at λ = 450 nm using a UVM340 microplate reader (Biogenet, Józefów, Poland). Results are expressed as the mean value of at least three independent experiments performed in triplicate.

[2] = tested on: A549; design: method as in doi:10.1016/j.arabjc.2016.10.009; conditions: values marked *; read-out: IC50 A-549; cited from earlier work
[3] = tested on: NHDF; assay: WST-1 test, normal human dermal fibroblasts; type: cell-based; conditions: Homo sapiens, NHDF; 72 h, WST-1, normal cells
Procedure: (§2) Hybrids 4–14 were tested as anticancer agents against four human cancer cell lines: colon cancer (Caco-2), glioblastoma (SNB-19), lung cancer (A549), ovarian cancer (SKOV-3), and normal human dermal fibroblasts (NHDFs). Cisplatin was used as the reference substance. The results are presented as the compound concentration of the compound (μM) that inhibits the growth of 50% of cancer cells compared to control cells (IC50). A negative value (Neg) means that the compound concentration of the tested hybrids was greater than 500 µM. […] It is generated only by a weak van der Waals interaction with Arg84. […] There is also a visible difference in activity depending on the type of group present on the triazole ring (substituent C in Figure 2). The results obtained indicate that hybrids containing aromatic systems as a C substituent in their structure, especially another quinoline molecule (compounds 9 and 10), have high activity.
as §1

[4] = tested on: SKOV-3; assay: WST-1 test, ovarian cancer cells; type: cell-based, human; conditions: Homo sapiens, SK-OV-3, 72 h
Procedure: as §2, §1

[5] = tested on: SNB-19; assay: WST-1 test, glioblastoma cells; type: cell-based, human
Procedure: as §2, §1

[6] = tested on: ROCK1; conditions: read-out: IC50 for ROCK1; cited from earlier work
[7] = tested on: HCC; conditions: Figure 1; cited from earlier work

IC50 [1] [µM]	IC50 [4] [µM]	IC50 ([5]; Homo sapiens, SNB-19, 72 h) [µM]	IC50 ([5]; 72 h) [µM]	SMILES	IC50 [2] [µM]	IC50 [3] [µM]	IC50 [6] [µM]	IC50 HCC [7] [mg/L]
0.38	53.9	0.44	–	CCCCn1cc(CNS(=O)(=O)c2cccc3cccnc23)nn1 [Compound 12a, 8-N-{[1-(1-butyl)-1H-1,2,3-triazol-4-yl]methyl}quinolinesulfonamide]	> 500	> 500	–	–
0.32	64.6	≤ 0.4	0.39	CCOC(=O)CCn1cc(CNS(=O)(=O)c2cccc3cccnc23)nn1 [Compound 13a, Ethyl 3-{[4-(8-sulfamoylquinolyl)methyl]-1H-1,2,3-triazol-1-yl}propanoate]	> 500	223	–	–
–	–	–	–	O=S(=O)(c1cccc2cnccc12)N1CCCNCC1 [Fasudil]	–	–	[…]	0.04 (≈ 0.137 µM)

SMILES	IC50 [1] [µM]	IC50 [4] [µM]	IC50 ([5]; Homo sapiens, SNB-19, 72 h) [µM]	IC50 ([5]; 72 h) [µM]	IC50 [2] [µM]	IC50 [3] [µM]	IC50 [6] [µM]	IC50 HCC [7] [mg/L]
C=C(Cn1cc(CN(C)S(=O)(=O)c2cccc3cccnc23)nn1)[C@@H]1CC[C@]2(COC(C)=O)CC[C@]3(C)[C@H](CC[C@@H]4[C@@]5(C)CC[C@H](OC(C)=O)C(C)(C)[C@@H]5CC[C@]43C)[C@@H]12 [Compound 14b, 8-N-methyl-N-({1-[3β, 28-diacetoxylup-20(29)-en-30-yl]-1H-1,2,3-triazol-4-yl}methyl)-quinolinesulfonamide]	18.2	1.09	9.26	–	> 500	> 500	–	–
